Results taken from patent publication US10335503B2, “Compound that specifically binds to AMPA receptor” (Public University Corporation Yokohama City University, priority 2015, dated 2019).

What was measured:
[1] = LC-MS/MS experiment: accumulation of compound in hippocampal tissue; format: in vivo; settings: rat, 15 minutes from administration, compared among five compounds (FIG. 1)
Experimental: (§1) In the LC-MS/MS experiment, all of the synthesized compounds were dissolved in 100% DMSO so as to have a concentration of 2.5 mM, diluted with physiological saline water immediately before administration (PEPA (1.2 pmol/g), M-1 (12 pmol/g), K-2 (12 pmol/g), M-3 (60 pmol/g), and M-2 (240 pmol/g)), and administered by the parenteral route. In the electrophysiological experiment, PEPA and K-2 were dissolved in 100% DMSO so as to have a concentration of 150 mM, diluted with ACSF as a reflux liquid immediately before the experiment so as to have a concentration of 150 μM and then used. […]
The LC-MS/MS experiment and the biochemical experiment were performed after a rat was allowed to get to sleep by inhalation of isoflurane while anesthesia was maintained using a dedicate carburetor at a concentration of 1.5%. […] In the LC-MS/MS experiment, the hippocampus region was collected in a thickness of approximately 2 mm from the extracted whole brain using Brain matrix (ASI instruments, U.S.), the tissue weight thereof was measured, and then the hippocampus region was put into a 1.5-ml conical tube. […]
As for the preliminary reviewing of measurement conditions, an optimal dilution solvent and an optimal dilution magnification for each compound were determined using the hippocampal tissue (Table 4). […]

AMPA receptor [2] = experiment: Electrophysiological experiment: AMPA current by whole-cell recording in acute hippocampus section; format: cell-based, rat; settings: 150 μM in ACSF for 15 minutes, CA1 pyramidal cell, ground state converted as 1
Experimental: as §1
A 7- to 8-week-old male SD rat was used. […] The section was left to stand still in ACSF at room temperature for 60 minutes, and then the AMPA current was measured by a whole-cell recording method. 100 μM of picrotoxin and 100 μM of DL-APV were administered under the condition that the ACSF was refluxed at a rate of 3 ml/min, and then only the AMPA current was isolated and measured.
The recording electrode was placed on a pyramidal cell in CA1, and the exciting electrode was placed on the Schaffer fiber separated away from the recording cell by 100 to 200 μm. […] The AMPA current in the ground state was recorded for 5 minutes, reflux was thereafter performed using ACSF added with PEPA or K-2 for 15 minutes, and then the AMPA current was recorded in the reflux liquid not containing PEPA or K-2 for 30 minutes. […]

AMPA receptor [3] = experiment: In vivo PET imaging using rat, with blocking by non-radio-labeled K-2
Experimental: as §1
The PET imaging was performed using micro PET (Focus 220; Siemens Medical Solution). PET imaging experiment using a rat: After the rat was allowed to get to sleep by isoflurane (DS Pharma Animal Health Co., Ltd., Japan), anesthesia was maintained at an isoflurane concentration of 1.5% (air 2 L/min), and then the intravenous line was secured from the tail vein by a 24G Surflo indwelling needle (TERUMO CORPORATION, Japan). The rat was fixed to the PET imaging base, and then radiation imaging for checking the position was performed before imaging. Thereafter, 50% DMSO or K-2 dissolved in 50% DMSO was administered by the parenteral route, and after 3 minutes from administration, the radio-labeled K-2 (about 4 MBq) was administered. During the PET imaging, the body temperature was maintained to 37±0.5° C. using a feedback type heating plate (BWT-100A; Bio Research Center, Japan). After the imaging, the intravenous line was removed, the administration of isoflurane was stopped, and then the rat was removed from the PET imaging base and returned to the home cage. The rat was raised in the room in which imaging was performed during 1 week after the imaging, and then the rat was returned to the normal rat group rearing room.
(§2) A summation image was constructed and offset was removed therefrom with a 0.5-mm Hanning filter so as to reconstruct a dynamic image. The reconstructed image was analyzed using PMOD image analysis software (PMOD technologies) by combining VOIs including a plurality of regions of the striatum, the hippocampus, the cerebellum, the brain stem, and the like with a region formed on the template MRI image. The calculation value used in quantitative determination was % SUV (% of standardized uptake value) and obtained by the following formula; % SUV=amount of radiation of each tissue surrounded by VOI (MBq)/administered amount of radiation (MBq)×weight (g)

[4] = test system: AMPA receptors (GluA1 to 3); experiment: In vivo PET imaging of rat with shRNA against GluA1 to 3 in left striatum, scramble RNA in right striatum; settings: seven rats, shRNA side vs scramble side of striatum
Experimental: The PET imaging was performed using micro PET (Focus 220; Siemens Medical Solution). PET imaging experiment using a rat: After the rat was allowed to get to sleep by isoflurane (DS Pharma Animal Health Co., Ltd., Japan), anesthesia was maintained at an isoflurane concentration of 1.5% (air 2 L/min), and then the intravenous line was secured from the tail vein by a 24G Surflo indwelling needle (TERUMO CORPORATION, Japan). The rat was fixed to the PET imaging base, and then radiation imaging for checking the position was performed before imaging. Thereafter, 50% DMSO or K-2 dissolved in 50% DMSO was administered by the parenteral route, and after 3 minutes from administration, the radio-labeled K-2 (about 4 MBq) was administered. […]
as §2, with “(g) […]” for “(g)”

Compound | accumulation of compound in hippocampal tissue [1] | ratio of AMPA current to reference value (AMPA receptor [2]) | BPnd (estimated binding potential) (AMPA receptor [3]; Logan Plot method, blocking using the non-radio-labeled K-2, striatum and hippocampus) | uptake of the brain stem (AMPA receptor [3]; blocking by non-radio-labeled K-2) | degree of loss of specific binding after blocking (AMPA receptor [3]; prior administration of 0.05 mg/kg of non-radio-labeled K-2, compared to 0.5 mg/kg) | specific accumulation of radio-labeled K-2 after blocking (AMPA receptor [3]; prior administration of 0.5 mg/kg of non-radio-labeled K-2, 3 minutes before) | brain uptake (AMPA receptor [3]; rat, PET, about 4 MBq) | decrease in the PET image value at the shRNA side [4]
NC(=O)COc1c(F)cc(SCCNS(=O)(=O)c2ccccc2)cc1F [PEPA, 2-[2,6-Difluoro-4-({2-[(phenylsulfonyl)amino]ethyl}thio)phenoxy]acetamide, reference compound] | highest | 2.4±0.13 | – | – | – | – | – | –
[11CH3]N(CCSc1cc(F)c(OCC(N)=O)c(F)c1)S(=O)(=O)c1ccccc1 [Radio-labeled K-2, {4-[2-(Benzenesulfonyl-[^11C]Methyl-Amino)-Ethylsulfanil]-2,6-Difluoro-Phenoxy}-Acetamide] | – | – | significantly lowered | not changed by blocking | small | lost | extremely high brain uptake | about 30%
